Experimental data: patent US12421216B2, “Voruciclib polymorphs and methods of making and using thereof” (MEI PHARMA, INC., priority 2019, dated 2025)
“Also recorded” adds a separate entry of the source.

Tests used:
Assay type in all cases: physicochemical
[1] = Physical stability upon exposure to accelerated aging conditions (AAC, 40° C./75% RH), re-analysis by HT-XRPD
[2] = Physical stability of solid forms upon drying under vacuum, HT-XRPD
Protocol: (§1) Amorphous voruciclib oxalate salt, generated by freeze-drying, was used to start the thermocycling experiments. Suspensions were prepared in the selected solvent systems at RT. Subsequently, the mixtures were subjected to a temperature profile. After the temperature profile, the solids were separated from the solutions by centrifugation and were dried at ambient conditions and under deep vacuum before being harvested and analyzed by HT-XRPD. The liquid phases were also dried under deep vacuum before being harvested and analyzed by HT-XRPD. All solids were exposed to AAC (40° C./75% RH, 2 days).
(§2) After the temperature profile, the solids were separated from the liquids by centrifugation and the solid phase was dried at ambient conditions and under deep vacuum (5 mbar) before being harvested and analyzed by HT-XRPD. The liquid phases were dried under deep vacuum (5 mbar) and the recovered solids were analyzed by HT-XRPD. All solids were then exposed to accelerated aging conditions (40° C./75% RH, 2 days) followed by HT-XRPD re-analysis.
as §1, with “voruciclib phosphate” for “voruciclib oxalate”, “profile. Upon completion of” for “profile. After”, “dried under” for “dried at”
as §2, with “dried under” for “dried at”, “(5 mbar, 18 h)” for “(5 mbar)”
Amorphous voruciclib malonate salt, generated by freeze-drying, was used to start the thermocycling experiments. Suspensions were prepared in the selected solvent systems at RT and were subjected to three thermocycles between 50 and 5° C., followed by aging at 25° C. for 3 days. Upon completion of the aging time, the solids were separated from the liquids by centrifugation and they were dried at ambient conditions and under deep vacuum (5 mbar) before being harvested and analyzed by HT-XRPD.
After the temperature profile the solids were separated from the solution by centrifugation and they were dried at ambient conditions and under deep vacuum before being harvested and analyzed by HT-XRPD.

[3] = Solubility of salts in water and in 0.2 M phosphate buffer pH 6 at 37° C. after 4 hours (HPLC-DAD); conditions: for pH (4 h): pH at end of equilibration
Protocol: Two sets of solubility experiments were performed. […] In the second set of solubility experiments about 5 mg of the salt was weighed in a standard 1.8 mL HPLC vial. Subsequently, aliquots of 200 μL of aqueous medium were added up to a maximum of 1 mL, while making observations regarding the dissolution behavior of the salts. The vials were left to equilibrate at 37° C. with continuous stirring (see Table 25 for details). After 4 hours the solids were separated from the liquid by centrifugation and the liquid phase was further filtrated through a […] PTFE filter to remove any particulate matter. The concentration of solute was determined by HPLC-DAD analysis. A calibration curve was made from two independent stock solutions of voruciclib prepared in acetonitrile/water. The pH was recorded at the end of the equilibration time.

[4] = 0.2M phosphate buffer pH 6, 37° C., about 1 mg salt in 1 mL
[5] = 0.2M phosphate buffer pH 6, 37° C., about 5 mg salt in 1 mL
[6] = water, 37° C., about 1 mg salt in 1 mL
[7] = water, 37° C., about 5 mg salt, up to 1 mL

Q: Which “Physical stability upon exposure to AAC” value ([1]; 40° C./75% RH, 2 days, HT-XRPD before and after) does the source give for `CN1CC[C@@H](c2c(O)cc(O)c3c(=O)cc(-c4ccc(C(F)(F)F)cc4Cl)oc23)[C@@H]1CO.CN1CC[C@@H](c2c(O)cc(O)c3c(=O)cc(-c4ccc(C(F)(F)F)cc4Cl)oc23)[C@@H]1CO.O.O=C(O)C(=O)O` [Oxa1] here?
A: Its value is “stable when exposed to advanced aging conditions; also recorded: physically stable under short term stress conditions; also recorded: physically stable upon exposure to AAC for two days; also recorded: remained stable upon exposure to AAC”.

Q: What about the “Stability AAC” value ([1]; oxalate salt cooling crystallization solids, AAC (40° C./75% RH, 1 day)) of the same molecule?
A: The value was “Stable”.

Q: What about the “Solid forms Vacuum AAC” value ([1]; oxalate salt thermocycling, vacuum-dried solids after AAC (40° C./75% RH, 2 days), HT-XRPD) of the same molecule?
A: The value was “Oxa1”.

Q: And the “Solid phase AAC (XRPD form after accelerated aging)” value ([1]; precipitated solids of the salt screen, dried under vacuum at 50° C., 40° C./75% RH for 2 days, HT-XRPD)?
A: The value was “Oxa1”.

Q: And the “Stable during AAC” value ([1]; salt screen solids, 40° C./75% RH, 2 days)?
A: The value was “Yes”.

Q: And the Vacuum ([2]; oxalate salt cooling crystallization, form after drying under deep vacuum (5 mbar), label = ambient-dried form)?
A: Its Vacuum is “Oxa1”.

Q: What about the “Physical stability upon drying under deep/high vacuum” value ([2]; oxalate, phosphate, malonate forms, 5 mbar, 18 h) of the same molecule?
A: Its value is “physically stable”.

Q: What about the “Solubility in phosphate buffer” value ([3]; 0.2 M phosphate buffer pH 6, 37° C., 4 hours) of the same molecule?
A: Its value is 30 µg/mL.

Q: What about the solubility ([3]; 0.2M phosphate buffer pH 6, 37° C., 4 hours, about 1 mg salt in 1 mL) of the same molecule?
A: Its solubility is 20 µg/mL.

Q: And the solubility ([3]; 0.2M phosphate buffer pH 6, 37° C., 4 hours, about 5 mg salt in 1 mL)?
A: The solubility was 30 µg/mL.

Q: And the “Solids recovered / salt dissociation after solubility determination in buffer” value ([3]; 0.2 M phosphate buffer pH 6, 37° C., 4 hours, XRPD)?
A: The value was “The salt had dissociated in the buffer”.

Q: And the “Form (4 h) of residual solid” value [3, 4]?
A: Its value is “Am”.

Q: And the “pH (4 h)” value [3, 4]?
A: Its value is 6.0.

Q: What about the “Form (4 h) of residual solid” value [3, 5] of the same molecule?
A: Its value is “Free”.

Q: And the “pH (4 h)” value [3, 5]?
A: Its value is 5.8.

Q: And the solubility ([3]; water, 37° C., 4 hours, about 1 mg salt in 1 mL)?
A: Its solubility is “hazy”.

Q: What about the solubility ([3]; water, 37° C., 4 hours, about 5 mg salt, up to 1 mL) of the same molecule?
A: Its solubility is “hazy”.

Q: What about the “Solids recovered after solubility determination in water” value ([3]; water, 37° C., 4 hours, XRPD) of the same molecule?
A: The value was “The residual solids of the suspension were identical to Oxa1”.

Q: And the “Form (4 h) of residual solid” value [3, 6]?
A: Its value is “Free”.

Q: And the “pH (4 h)” value [3, 6]?
A: Its value is 4.4.

Q: And the “Form (4 h) of residual solid” value [3, 7]?
A: Its value is “Oxa1”.

Q: And the “pH (4 h)” value [3, 7]?
A: Its value is 4.3.
